Several values for one entry are separate records, joined by “and”; a condition that tells them apart may be missing. Identical values can stand only once.
How the values were obtained:
Type in all cases: in vivo
dopamine transporter [1] = target: T1, dopamine transporter (Homo sapiens, UniProt Q01959); experiment: Striatal binding ratio (SBR) from DaTSCAN images of normal subjects, ENCDAT database; settings: mean ±1 SD
T1 construct: from tissue; host or cells: striatum of living normal human subjects (in vivo SPECT imaging, ENCDAT and PPMI databases)
T1 sequence (Q01959 whole entry): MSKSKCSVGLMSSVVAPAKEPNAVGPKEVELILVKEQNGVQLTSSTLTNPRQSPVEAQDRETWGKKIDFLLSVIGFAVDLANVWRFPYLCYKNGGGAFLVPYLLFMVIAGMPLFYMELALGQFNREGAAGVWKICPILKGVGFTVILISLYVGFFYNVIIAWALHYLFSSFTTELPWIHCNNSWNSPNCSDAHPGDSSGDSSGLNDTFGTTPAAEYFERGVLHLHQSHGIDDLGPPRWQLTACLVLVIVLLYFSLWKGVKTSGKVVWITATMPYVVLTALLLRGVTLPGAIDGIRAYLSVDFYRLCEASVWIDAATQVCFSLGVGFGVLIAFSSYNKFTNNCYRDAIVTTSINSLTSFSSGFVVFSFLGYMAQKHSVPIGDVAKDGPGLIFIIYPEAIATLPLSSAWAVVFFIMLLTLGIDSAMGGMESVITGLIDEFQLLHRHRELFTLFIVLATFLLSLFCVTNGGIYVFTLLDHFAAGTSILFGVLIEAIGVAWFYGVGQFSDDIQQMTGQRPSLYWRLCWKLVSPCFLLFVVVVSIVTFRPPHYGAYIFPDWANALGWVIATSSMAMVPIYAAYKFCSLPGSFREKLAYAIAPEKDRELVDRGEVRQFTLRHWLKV
Experimental: The European Association of Nuclear Medicine RESEARCH4LIFE© initiative (“EARL”) has been compiling a database of DaTSCAN images of normal human subjects since 2007 (see http://earl.eanm.org/cms/website.php?id=/en/projects/enc-dat.htm). The ENCDAT database includes 150 normal subjects—with data from a range of camera types. SBR was calculated for the 150 normal subjects (Group A):
[formula] • where: • SBR=specific binding ratio or striatum binding ratio, • ROI=region of interest. Brain imaging data for n=37 normal subjects acquired on GE cameras in the ENCDAT database was used for the calculation of SBR (Group B). SBR for an illustrative patient from the ENCDAT database is also shown: […]

dopamine transporter [2] = target: T1, dopamine transporter; experiment: Striatum right:left ratio from DaTSCAN SBR data of normal subjects, ENCDAT database
From the text: Using the method of the present invention, the data from Example 1 was used to calculate a striatum right:left ratio:
Table 3 below uses SBR data for normal subjects from the ENC DAT database. Three subjects from each of five different sites are shown, but the overall average is based on data from 11 sites: […]

dopamine transporter [3] = target: T1, dopamine transporter; experiment: Normal database (PPMI, ENCDAT) DaTSCAN scans, SBR method averaged per decade of life; settings: normal subjects
Experimental: Two databases of scans of DaTSCAN™ (GE Healthcare Ltd) normal human subjects were evaluated using: • (i) the SBR method of the prior art (see Example 1), with the occipital cortex as the reference region; • (ii) the L/R ratio method of the present invention. The PPMI database was of 122 subjects (age range 31-84; 62% male 38% female). The ENCDAT database was of 122 subjects (age range 20-82; 52% male 48% female). The data from all subjects in each decade of life (20 s, 30 s etc) were averaged.

dopamine transporter [4] = target: T1, dopamine transporter; experiment: Patient classification from Datscan clinical trial data using SBR only, versus clinical diagnosis
Experimental: The data from two GE Healthcare Ltd clinical trials of Datscan™: • (i) comparing PD and ET; • (ii) clinically uncertain PD; 104 patients in total were analysed using SBR calculation only. Each determination was compared with the patient determination based on clinical symptoms.
This gives a sensitivity of 71%, specificity of 96% and accuracy of 82% for the SBR technique. The clinical diagnosis was assumed to be the ‘true’ diagnosis, and sensitivity and specificity can then be calculated. Sensitivity=100×True Positives/(True Positives+False Negatives)=100×42/59=71%. Specificity=100×True Negatives/(True Negatives+False Positives)=100×43/45=96%. Accuracy=100×(True Positives+True Negatives)/Population=100×(42+43)/104=82%.

dopamine transporter [5] = target: T1, dopamine transporter; experiment: Patient classification from Datscan clinical trial data using SBR plus L/R asymmetry, versus clinical diagnosis
Experimental: The 104 patient data set from Example 4 was analysed using SBR together with the L/R asymmetry of the present invention.

[6] = Normal A: 150 normal subjects, range of camera types
[7] = Normal B: n=37 normal subjects, GE cameras
[8] = WHOLE mean, overall average of 11 sites
[9] = individual normal subjects, three per site, sites 1-5
[10] = SBR technique, clinical diagnosis as truth
[11] = 104 patients, SBR with L/R asymmetry
[12] = SBR plus asymmetry, clinical diagnosis as truth

COC(=O)[C@H]1[C@@H](c2ccc([123I])cc2)C[C@@H]2CC[C@H]1N2CCCF [DaTSCAN, ^123I-ioflupane]
SBR Striatum left (dopamine transporter [1]; [6]): 2.88 ± 0.69 and 2.88 +/− 0.69 | SBR Striatum right (dopamine transporter [1]; [6]): 2.88 ± 0.65 and 2.88 +/− 0.65 | SBR Striatum left (dopamine transporter [1]; [7]): 2.42 +/− 0.63 | SBR Striatum right (dopamine transporter [1]; [7]): 2.41 +/− 0.63 | SBR left, normal range (dopamine transporter [2]; Normal range (+/-1 SD)): 1.79-3.05 | SBR right, normal range (dopamine transporter [2]; Normal range (+/-1 SD)): 1.78-3.04 | Striatum Right:left, normal range (dopamine transporter [2]; Normal range (+/-1 SD)): 0.96-1.04 | Striatum Right:left (dopamine transporter [2]; Normal subjects, mean +/-1 SD): 1.00 +/− 0.04 | Anterior putamen R:L ratio (dopamine transporter [2]; [8]): 1.00 | Caudate R:L ratio (dopamine transporter [2]; [8]): 0.99 | Posterior Putamen R:L ratio (dopamine transporter [2]; [8]): 1.01 | Putamen R:L ratio (dopamine transporter [2]; [8]): 1.01 | SBR Striatum L (dopamine transporter [2]; [8]): 2.88 | SBR Striatum R (dopamine transporter [2]; [8]): 2.88 | Striatum R:L ratio (dopamine transporter [2]; [8]): 1.00 | Anterior putamen R:L ratio (dopamine transporter [2]; [9]): 1.03 (2×) and 1.00 (4×) and 0.91 and 0.98 and 0.97 and 1.01 (3×) and 1.06 and 0.99 and 0.96 | Caudate R:L ratio (dopamine transporter [2]; [9]): 0.98 and 1.02 and 0.97 and 1.05 (3×) and 0.89 and 1.03 (3×) and 1.15 and 1.11 and 1.07 and 0.94 and 1.01 | Posterior Putamen R:L ratio (dopamine transporter [2]; [9]): 1.03 and 1.08 and 1.18 (2×) and 1.00 and 1.05 and 0.99 and 1.20 and 1.07 (3×) and 1.02 and 1.11 (2×) and 0.93 | Putamen R:L ratio (dopamine transporter [2]; [9]): 1.03 (2×) and 1.02 and 1.04 (2×) and 1.05 (2×) and 0.93 and 1.00 (3×) and 0.98 and 1.06 and 1.07 and 0.99 | SBR Striatum L (dopamine transporter [2]; [9]): 3.25 and 2.58 and 3.11 and 2.60 and 2.94 and 1.88 and 4.03 and 2.33 and 3.28 and 2.62 and 2.37 and 2.50 and 4.79 and 3.22 and 3.09 | SBR Striatum R (dopamine transporter [2]; [9]): 3.29 and 2.65 and 3.16 and 2.74 and 2.69 and 1.91 and 4.06 and 2.56 and 3.57 and 2.70 and 2.37 and 2.62 and 4.93 and 3.23 and 3.15 | Striatum R:L ratio (dopamine transporter [2]; [9]): 1.01 (2×) and 1.03 (3×) and 1.02 (3×) and 1.05 (2×) and 0.92 and 1.10 and 1.09 and 1.00 (2×) | SBR (dopamine transporter [3]; eighties age group): about 2.2 | SBR (dopamine transporter [3]; thirties age group): about 3.2 | number of subjects: SBR Abnormal, Clinical Abnormal (dopamine transporter [4]; 104 patients, SBR only): 42 | number of subjects: SBR Abnormal, Clinical Normal (dopamine transporter [4]; 104 patients, SBR only): 2 | number of subjects: SBR Normal, Clinical Abnormal (dopamine transporter [4]; 104 patients, SBR only): 17 | number of subjects: SBR Normal, Clinical Normal (dopamine transporter [4]; 104 patients, SBR only): 43 | accuracy (dopamine transporter [4]; [10]): 82% | sensitivity (dopamine transporter [4]; [10]): 71% | specificity (dopamine transporter [4]; [10]): 96% | number of subjects: SBR + Asymmetry Abnormal, Clinical Abnormal (dopamine transporter [5]; [11]): 54 | number of subjects: SBR + Asymmetry Abnormal, Clinical Normal (dopamine transporter [5]; [11]): 11 | number of subjects: SBR + Asymmetry Normal, Clinical Abnormal (dopamine transporter [5]; [11]): 5 | number of subjects: SBR + Asymmetry Normal, Clinical Normal (dopamine transporter [5]; [11]): 34 | accuracy (dopamine transporter [5]; [12]): 85% | sensitivity (dopamine transporter [5]; [12]): 92% | specificity (dopamine transporter [5]; [12]): 76%
